The test system of this data set is CCRIS mutagenicity, Ames/micronucleus/aberration tests. The experiment in a line: CCRIS mutagenicity studies. The note with it: Test System: AMES SALMONELLA TYPHIMURIUM, Metabolic Activation: NONE, Method: STANDARD PLATE.

From PubChem BioAssay AID1259407 (Chemical Carcinogenesis Research Information System (CCRIS), 2018) come the findings set out here.

Active and inactive are the calls of the source. No rule for the calls is given here.

Regarding `CCN(CCCl)c1ccc(CCCNc2c3ccccc3nc3ccccc23)cc1`, the mutagenic call is “inactive; negative” (Strain/Indicator: DG1588); “inactive; negative” (Strain/Indicator: DG1592); “active; positive” (Strain/Indicator: DG1593); “active; positive” (Strain/Indicator: TA98); “active; positive” (Strain/Indicator: TA100); “inactive; negative” (Strain/Indicator: TA102). In addition, the mutagenic call reads like this: (Strain/Indicator: TA104) “active; positive”; (Strain/Indicator: TA1535) “inactive; negative”; (Strain/Indicator: TA1537 (PKM101)) “active; positive”; (Strain/Indicator: TA1537) “active; positive”; (Strain/Indicator: TA1538) “inactive; negative”; (Strain/Indicator: TA1975 (PKM101)) “inactive; negative”. In addition, the mutagenic call is “inactive; negative” (Strain/Indicator: TA1975); “active; positive” (Strain/Indicator: TA1977); “active; positive” (Strain/Indicator: TA1978 (PKM101)); “inactive; negative” (Strain/Indicator: TA1978); “active; positive” (Strain/Indicator: TA4001); “active; positive” (Strain/Indicator: TA4006).
